# Measurements published in the supplement of paper PMC9663587.
# Legend:
# Rucaparib = compound: CNCc1ccc(-c2[nH]c3cc(F)cc4c3c2CCNC4=O)cc1 [Rucaparib]
# Alpelisib/BYL719 = compound: Cc1nc(NC(=O)N2CCC[C@H]2C(N)=O)sc1-c1ccnc(C(C)(C)C(F)(F)F)c1 [Alpelisib/BYL719]
# Cediranib/AZD2171 = compound: COc1cc2c(Oc3ccc4[nH]c(C)cc4c3F)ncnc2cc1OCCCN1CCCC1 [Cediranib/AZD2171]
# THZ1 [1] = compound: T1, CN(C)C/C=C/C(=O)Nc1ccc(C(=O)Nc2cccc(Nc3ncc(Cl)c(-c4c[nH]c5ccccc45)n3)c2)cc1 [THZ1]
# [2] = compound: CC(=O)Nc1cccc(-n2c(=O)n(C3CC3)c(=O)c3c(Nc4ccc(I)cc4F)n(C)c(=O)c(C)c32)c1
# BVD523 = compound: CC(C)Nc1cc(-c2c[nH]c(C(=O)N[C@H](CO)c3cccc(Cl)c3)c2)c(Cl)cn1 [BVD523]
# [3] = compound: CO[C@@H](C)Cn1c(=O)n(C)c2cnc3ccc(-c4cncc(C(C)(C)O)c4)cc3c21
# Saracatinib/AZD0530 = compound: CN1CCN(CCOc2cc(OC3CCOCC3)c3c(Nc4c(Cl)ccc5c4OCO5)ncnc3c2)CC1 [Saracatinib/AZD0530]
# THZ531 [4] = compound: T2, CN(C)C/C=C/C(=O)Nc1ccc(C(=O)N2CCC[C@@H](Nc3ncc(Cl)c(-c4c[nH]c5ccccc45)n3)C2)cc1 [THZ531]
# [5] = compound: CCCCOc1c(C(=O)c2c(F)cc(C)cc2F)c[nH]c2nncc1-2
# AZD1775 = compound: C=CCn1c(=O)c2cnc(Nc3ccc(N4CCN(C)CC4)cc3)nc2n1-c1cccc(C(C)(C)O)n1 [AZD1775]
# [6] = compound: COc1ccc2c(c1)[C@]1(C[C@H]1c1ccc3c(/C=C/c4ccc(CN5C[C@@H](C)O[C@@H](C)C5)cc4)n[nH]c3c1)C(=O)N2
# [7] = compound: CCc1cnn2c(NCc3ccc[n+]([O-])c3)cc(N3CCCC[C@H]3CCO)nc12; test: increase in dead-cell fraction, 72 h; higher = more death;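 note: breast cancer cell lines in 384-well plates, stained with Hoechst plus LIVE/DEAD far red dye and imaged, cells above an LDR intensity threshold counted dead, Hoechst-negative corpses included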
# [8] = compound: CC(=O)c1c(C)c2cnc(Nc3ccc(N4CCNCC4)cn3)nc2n(C2CCCC2)c1=O; test: as above
# BSJ-03-123 = compound: CC(=O)c1c(C)c2cnc(Nc3ccc(N4CCN(CCOCCOCCOCCNC(=O)COc5cccc6c5C(=O)N(C5CCC(=O)NC5=O)C6=O)CC4)cn3)nc2n(C2CCCC2)c1=O [BSJ-03-123]; test: as above
# THZ1 [9] = compound: T1, THZ1; test: as above
# LEE011/Ribociclib = compound: CN(C)C(=O)c1cc2cnc(Nc3ccc(N4CCNCC4)cn3)nc2n1C1CCCC1 [LEE011/Ribociclib]; test: as above
# THZ531 [10] = compound: T2, THZ531; test: as above
# YKL-5-124 = compound: C=CC(=O)Nc1ccc(C(=O)Nc2[nH]nc3c2CN(C(=O)N[C@H](CN(C)C)c2ccccc2)C3(C)C)cc1 [YKL-5-124]; test: as above
# Neratinib/HKI272 = compound: CCOc1cc2ncc(C#N)c(Nc3ccc(OCc4ccccn4)c(Cl)c3)c2cc1NC(=O)/C=C/CN(C)C [Neratinib/HKI272]; test: as above
# 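Throughout, for GR50, 72 h: breast cancer and non-malignant breast epithelial cell lines, Deep Dye Drop or Dye Drop imaging, nine half-log doses, GR normalized to time-zero plates and DMSO-only controls.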
cell line,measurement,setting,value
EVSAT,"GR50, 72 h",Rucaparib,> 10 µM
same,"GR50, 72 h",Alpelisib/BYL719,> 10 µM
same,"GR50, 72 h",Cediranib/AZD2171,9.9 µM
same,"GR50, 72 h",THZ1 [1],0.0571 µM
same,"GR50, 72 h",[2],> 1 µM
same,"GR50, 72 h",BVD523,> 10 µM
same,"GR50, 72 h",[3],0.00155 µM
same,"GR50, 72 h",Saracatinib/AZD0530,2.69 µM
same,"GR50, 72 h",THZ531 [4],0.124 µM
same,"GR50, 72 h",[5],1.45 µM
same,"GR50, 72 h",AZD1775,3.96 µM
same,"GR50, 72 h",[6],0.00784 µM
same,increase in dead-cell fraction,[7]; 0.0001 µM,-0.0004
same,increase in dead-cell fraction,[7]; 0.0003162 µM,0.0006
same,increase in dead-cell fraction,[7]; 0.001 µM,0.0006
same,increase in dead-cell fraction,[7]; 0.003162 µM,-0.003
same,increase in dead-cell fraction,[7]; 0.01 µM,-0.0037
same,increase in dead-cell fraction,[7]; 0.03162 µM,0.107
same,increase in dead-cell fraction,[8]; 0.0003162 µM,0.0003
same,increase in dead-cell fraction,[8]; 0.001 µM,-0.0039
same,increase in dead-cell fraction,[8]; 0.003162 µM,-0.002
same,increase in dead-cell fraction,[8]; 0.01 µM,-0.0026
same,increase in dead-cell fraction,[8]; 0.03162 µM,0.0033
same,increase in dead-cell fraction,[8]; 0.1 µM,0.0048
same,increase in dead-cell fraction,[8]; 0.3162 µM,0.0108
same,increase in dead-cell fraction,[8]; 1 µM,0.0176
same,increase in dead-cell fraction,[8]; 3.162 µM,0.0205
same,increase in dead-cell fraction,BSJ-03-123; 0.001 µM,-0.0001
same,increase in dead-cell fraction,BSJ-03-123; 0.003162 µM,0.0011
same,increase in dead-cell fraction,BSJ-03-123; 0.01 µM,0.0093
same,increase in dead-cell fraction,BSJ-03-123; 0.03162 µM,0.0004
same,increase in dead-cell fraction,BSJ-03-123; 0.1 µM,0.0074
same,increase in dead-cell fraction,BSJ-03-123; 0.3162 µM,-0.0005
same,increase in dead-cell fraction,BSJ-03-123; 1 µM,0.0163
same,increase in dead-cell fraction,BSJ-03-123; 3.162 µM,0.0309
same,increase in dead-cell fraction,BSJ-03-123; 10 µM,0.221
same,increase in dead-cell fraction,THZ1 [9]; 0.0001 µM,-0.0011
same,increase in dead-cell fraction,THZ1 [9]; 0.0003162 µM,0.0011
same,increase in dead-cell fraction,THZ1 [9]; 0.001 µM,0.0012
same,increase in dead-cell fraction,THZ1 [9]; 0.003162 µM,0.0031
same,increase in dead-cell fraction,THZ1 [9]; 0.01 µM,0.0078
same,increase in dead-cell fraction,THZ1 [9]; 0.03162 µM,0.0292
same,increase in dead-cell fraction,THZ1 [9]; 0.1 µM,0.181
same,increase in dead-cell fraction,THZ1 [9]; 0.3162 µM,0.641
same,increase in dead-cell fraction,LEE011/Ribociclib; 0.001 µM,0.0012
same,increase in dead-cell fraction,LEE011/Ribociclib; 0.003162 µM,0.0024
same,increase in dead-cell fraction,LEE011/Ribociclib; 0.01 µM,0.0001
same,increase in dead-cell fraction,LEE011/Ribociclib; 0.03162 µM,0.0046
same,increase in dead-cell fraction,LEE011/Ribociclib; 0.1 µM,0.0067
same,increase in dead-cell fraction,LEE011/Ribociclib; 0.3162 µM,0.0048
same,increase in dead-cell fraction,LEE011/Ribociclib; 1 µM,0.0025
same,increase in dead-cell fraction,LEE011/Ribociclib; 3.162 µM,0.0016
same,increase in dead-cell fraction,LEE011/Ribociclib; 10 µM,0.0146
same,increase in dead-cell fraction,THZ531 [10]; 0.0001 µM,0.0033
same,increase in dead-cell fraction,THZ531 [10]; 0.0003162 µM,-0.0022
same,increase in dead-cell fraction,THZ531 [10]; 0.001 µM,-0.0014
same,increase in dead-cell fraction,THZ531 [10]; 0.003162 µM,-0.0011
same,increase in dead-cell fraction,THZ531 [10]; 0.01 µM,0.0002
same,increase in dead-cell fraction,THZ531 [10]; 0.03162 µM,-0.0005
same,increase in dead-cell fraction,THZ531 [10]; 0.1 µM,0.0333
same,increase in dead-cell fraction,THZ531 [10]; 0.3162 µM,0.372
same,increase in dead-cell fraction,YKL-5-124; 0.001 µM,0.0967
same,increase in dead-cell fraction,YKL-5-124; 0.003162 µM,0.0973
same,increase in dead-cell fraction,YKL-5-124; 0.01 µM,0.147
same,increase in dead-cell fraction,YKL-5-124; 0.03162 µM,0.16
same,increase in dead-cell fraction,YKL-5-124; 0.1 µM,0.143
same,increase in dead-cell fraction,YKL-5-124; 0.3162 µM,0.185
same,increase in dead-cell fraction,YKL-5-124; 1 µM,0.183
same,increase in dead-cell fraction,YKL-5-124; 3.162 µM,0.204
same,increase in dead-cell fraction,YKL-5-124; 10 µM,0.697
same,increase in dead-cell fraction,Neratinib/HKI272; 0.0003162 µM,-0.0012
same,increase in dead-cell fraction,Neratinib/HKI272; 0.001 µM,-0.002
same,increase in dead-cell fraction,Neratinib/HKI272; 0.003162 µM,-0.0011
same,increase in dead-cell fraction,Neratinib/HKI272; 0.01 µM,-0.0031
same,increase in dead-cell fraction,Neratinib/HKI272; 0.03162 µM,-0.0026
same,increase in dead-cell fraction,Neratinib/HKI272; 0.1 µM,-0.0027
same,increase in dead-cell fraction,Neratinib/HKI272; 0.3162 µM,-0.002
same,increase in dead-cell fraction,Neratinib/HKI272; 1 µM,0.0019
same,increase in dead-cell fraction,Neratinib/HKI272; 3.162 µM,0.0083
